Results published in patent US20120045522A1 (priority 2010, published 2012).

How the values were obtained:
[1] = test system: Leptosphaeria nodorum (LEPTNO); assay: In vitro fungitoxicity (growth inhibition) assay in copper-minus / copper-plus liquid medium; format: cell-based; details: for inhibition of growth at 0.05 µg/mL: Parastagonospora nodorum, copper-minus medium, light scattering, read-out: LEPTNO % Inhn. Minus Copper Observed; for inhibition of growth at 0.05 µg/mL / LEPTNO % Inhn. Plus Copper Observed: test compound at 0.05 μg/mL, 72 h at 25° C.; for LEPTNO % Inhn. Plus Copper Observed: copper-plus medium (CuCl2.2H2O)
Procedure: In vitro fungitoxicity assays against Leptosphaeria nodorum (LEPTNO) were conducted using the liquid growth medium described by Coursen and Sisler (American Journal of Botany 1960, 47, 541-549) except that copper micronutrient, normally included as CuSO4, was omitted. The medium, termed “copper-minus,” was prepared by dissolving 10 g glucose, 1.5 g K2HPO4, 2 g KH2PO4 and 1 g (NH4)2SO4 in 1 liter of deionized water and treating the solution with 0.5 g Chelex 100 resin (Bio-Rad Analytical grade, 50-100 mesh, sodium form, cat#142-2822) by stirring at room temperature for 1 h. MgSO4.7H2O (0.5 g) was added, and stirring was continued for a further hour. Trace elements (minus CuSO4), and vitamins described by Coursen and Sisler were added from concentrated stock solutions and the entire medium was sterilized by filtration. Medium containing copper was prepared by adding CuCl2.2H2O to the copper-minus medium at 20 μM. Test compounds were dissolved in dimethylsulfoxide (DMSO) at 10 μg/mL and 1 μL aliquots were added to two wells of flat-bottomed 96-well microtiter plates. Copper-minus medium (100 μL) was added to one of the wells and copper-plus medium to the second well. Control wells, included for each medium, received 1 μL DMSO and 100 μL of medium.
LEPTNO was grown on potato dextrose agar in 9 cm diameter petri dishes for 7 days. Sterile deionized water (20 mL) was added to a culture plate and spores suspended by scraping the surface gently with a sterile plastic loop. The resulting suspension was filtered through a double layer of sterile cheesecloth. Filtered spore suspension (5 mL) was centrifuged in a bench centrifuge at 2000 rpm for 2 min. The resulting spore pellet was resuspended in 10 mL sterile deionized water (which had been treated with Chelex 100 resin using 0.5 g resin per liter of water by stirring at room temperature for 1 h), and recentrifuged. The spores were resuspended in copper-minus medium, and the suspension adjusted to 2×10^5 spores per mL. Microtiter plates were inoculated with 100 μL of this spore suspension and the plates incubated at 25° C. for 72 h before assessing fungal growth by measuring light scattering in a NepheloStar plate reader. Growth inhibition was determined by comparing growth in the presence of test compound with growth in control wells lacking test compound.
Results for growth inhibition by test compounds at 0.05 μg/mL in copper-plus medium (% Inhn. Plus Copper Observed) were compared with predicted values (% Inhn. Plus Copper Predicted) that were calculated using the formula set forth by S. R. Colby in Weeds 1967, 15, 20-22 based on results obtained for the same compounds in copper-minus medium (% Inhn. Minus Copper Observed) and the inhibition attributed to copper chloride alone, as determined by comparing growth in copper-minus and copper-plus media without any test compound across experiments. Results illustrate that hydrazones and copper produce a synergistic fungitoxic effect towards LEPTNO.

Phytophthora infestans = format: in vivo; details: hydrazone 50 ppm plus 50 μM CuCl2.2H2O, applied 24 h before inoculation, assessed 7 days after inoculation, tomato plants

SMILES | inhibition of growth at 0.05 µg/mL [1] [%] | LEPTNO % Inhn. Plus Copper Observed [1] [%] | TLB % control (Phytophthora infestans) [%] | melting point [°C] | LEPTNO % inhibition attributed to copper chloride alone ([1]; CuCl2 10 μM, no test compound, growth in copper-plus vs copper-minus medium across experiments) [%]
Cc1ccc(C(=O)N/N=C2\CCc3c(Cl)cc(Cl)c(O)c32)cc1 [Compound 1, 4-Methylbenzoic acid [4,6-dichloro-7-hydroxy-indanylidine]hydrazide] | 15.2 | 96.8 | 78 | 218 to 222 | 
O=C(N/N=C1\CCc2c(Cl)cc(Cl)c(O)c21)c1ccc(Cl)cc1 [Compound 2] | 16.7 | 96.8 | 78 | 252 to 255 | 
O=C(N/N=C1\CCc2c(Cl)cc(Cl)c(O)c21)c1ccccc1O [Compound 3] | 24.9 | 97.1 | 55 | 285 to 290 | 
COc1ccc(C(=O)N/N=C2\CCc3c(Cl)cc(Cl)c(O)c32)cc1 [Compound 4] | 3.5 | 96.6 | 64 | 230 to 233 | 
O=C(N/N=C1\CCc2c(Cl)cc(Cl)c(O)c21)c1ccc(C(F)(F)F)cc1 [Compound 5] | 20.7 | 97.2 | 53 | 245 to 248 | 
O=C(N/N=C1\CCc2c(Cl)cc(Cl)c(O)c21)c1ccccc1 [Compound 6] | 23.1 | 94.1 | 95 | 243 to 245 | 
O=C(N/N=C1\CCc2cccc(O)c21)c1ccccc1 [Compound 7] | 0 | 95.3 | 61 | 192 to 194 | 
Cc1ccc(C(=O)N/N=C2\CCc3c(Cl)cc(Cl)c(O)c32)c(O)c1 [Compound 8] | 0 | 96.9 | 69 | 284 to 288 | 
O.O.[Cl][Cu][Cl] [CuCl2, CuCl2.2H2O, reference compound] |  |  |  |  | 13.2
